Tests used:
[1] = system: corn earworm (CEW; Helicoverpa zea); assay: Insecticidal test for corn earworm, 128-well diet tray assay; format: in vivo; conditions: 144 h, 50 μg/cm2 on artificial diet, second instar larvae, six days at 25° C.
Procedure: (§1) Bioassays on corn earworm (CEW; Helicoverpa zea: Lepidoptera) were conducted using a 128-well diet tray assay. Three to five second instar CEW larvae were placed in each well (3 mL) of the diet tray that had been previously filled with 1 mL of artificial diet to which 50 μg/cm^2 of the test compound (dissolved in 50 μL of 90:10 acetone-water mixture) had been applied (to each of eight wells) and then allowed to dry. Trays were covered with a clear self-adhesive cover, and held at 25° C., 14:10 light-dark for six days. Percent mortality was recorded for the larvae in each well; activity in the eight wells was then averaged.

[2] = system: beet armyworm (BAW; Spodoptera exigua); assay: Insecticidal test for beet armyworm, 128-well diet tray assay; format: in vivo; conditions: 144 h, 50 μg/cm2 on artificial diet, second instar larvae, six days at 25° C.
Procedure: as §1, with “beet armyworm (BAW; Spodoptera exigua:” for “corn earworm (CEW; Helicoverpa zea:”, “BAW” for “CEW”

## CCN(/N=C/c1ccc(-c2ncn(-c3ccc(OC(F)(F)F)cc3)n2)cc1)C(=S)Nc1ccc(OC)cc1C [Compound 86]
[1]
  mortality at 50 µg/cm2: 50 to 100%
[2]
  mortality at 50 µg/cm2: 50 to 100%

## COc1cccc(NC(=S)N/N=C/c2ccc(-c3ncn(-c4ccc(OC(F)(F)F)cc4)n3)cc2)c1C [Compound 90]
[1]
  mortality at 50 µg/cm2: 50 to 100%
[2]
  mortality at 50 µg/cm2: 50 to 100%

## Cc1cc(C)c(NC(=S)N/N=C/c2ccc(-c3ncn(-c4ccc(OC(F)(F)C(F)(F)F)cc4)n3)cc2)c(C)c1 [Compound 123]
[1]
  mortality at 50 µg/cm2: 50 to 100%
[2]
  mortality at 50 µg/cm2: 50 to 100%

## CC(C)c1cccc(C(C)C)c1NC(=S)N/N=C/c1ccc(-c2ncn(-c3ccc(OC(F)(F)F)cc3)n2)cc1 [Compound 107]
[1]
  mortality at 50 µg/cm2: 50 to 100%
[2]
  mortality at 50 µg/cm2: 50 to 100%

## COc1ccc([C@@H](C)NC(=S)N/N=C/c2ccc(-c3ncn(-c4ccc(OC(F)(F)F)cc4)n3)cc2)cc1 [Compound 142]
[1]
  mortality at 50 µg/cm2: 50 to 100%
[2]
  mortality at 50 µg/cm2: 50 to 100%

## Cc1ccc(NC(=S)N/N=C/c2ccc(-c3ncn(-c4ccc(OC(F)(F)F)cc4)n3)cc2)c(C)c1 [Compound 95]
[1]
  mortality at 50 µg/cm2: 50 to 100%
[2]
  mortality at 50 µg/cm2: 50 to 100%

## COc1ccccc1C(C)NC(=S)N/N=C/c1ccc(-c2ncn(-c3ccc(OC(F)(F)F)cc3)n2)cc1 (stereo not drawn) [Compound 148]
[1]
  mortality at 50 µg/cm2: 50 to 100%
[2]
  mortality at 50 µg/cm2: 50 to 100%

## COc1ccc(C(C)NC(=S)N/N=C/c2ccc(-c3ncn(-c4ccc(OC(F)(F)F)cc4)n3)cc2)cc1OC (stereo not drawn) [Compound 151]
[1]
  mortality at 50 µg/cm2: 50 to 100%
[2]
  mortality at 50 µg/cm2: 50 to 100%

## CC(C)(C)c1ccccc1NC(=S)N/N=C/c1ccc(-c2ncn(-c3ccc(OC(F)(F)F)cc3)n2)cc1 [Compound 83]
[1]
  mortality at 50 µg/cm2: < 50%
[2]
  mortality at 50 µg/cm2: < 50%

## Cc1cc(C)c(NC(=O)N/N=C/c2ccc(-c3ncn(-c4ccc(OC(F)(F)F)cc4)n3)cc2)c(C)c1 [Compound 118]
[1]
  mortality at 50 µg/cm2: 50 to 100%
[2]
  mortality at 50 µg/cm2: 50 to 100%

## FC(F)(F)Oc1ccc(N2CCC(c3ccc(/C=N/NC(=S)Nc4c(Cl)cccc4Cl)cc3)=N2)cc1 [Compound 141]
[1]
  mortality at 50 µg/cm2: 50 to 100%
[2]
  mortality at 50 µg/cm2: 50 to 100%

## COc1ccc(NC(=S)N/N=C/c2ccc(-c3ncn(-c4ccc(OC(F)(F)C(F)(F)F)cc4)n3)cc2)c(C)c1 [Compound 122]
[1]
  mortality at 50 µg/cm2: 50 to 100%
[2]
  mortality at 50 µg/cm2: 50 to 100%

## CC(NC(=S)N/N=C/c1ccc(-c2ncn(-c3ccc(OC(F)(F)F)cc3)n2)cc1)c1ccc(Br)cc1 (stereo not drawn) [Compound 146]
[1]
  mortality at 50 µg/cm2: 50 to 100%
[2]
  mortality at 50 µg/cm2: 50 to 100%

## COc1cc(F)c(NC(=S)N/N=C/c2ccc(-c3ncn(-c4ccc(OC(F)(F)F)cc4)n3)cc2)c(F)c1 [Compound 108]
[1]
  mortality at 50 µg/cm2: 50 to 100%
[2]
  mortality at 50 µg/cm2: 50 to 100%

## Cc1cccc(C)c1NC(=S)N/N=C/c1ccc(-c2ccn(-c3ccc(OC(F)(F)F)cc3)n2)cc1 [Compound 136]
[1]
  mortality at 50 µg/cm2: 50 to 100%
[2]
  mortality at 50 µg/cm2: 50 to 100%

## Cc1ccsc1CNC(=S)N/N=C/c1ccc(-c2ncn(-c3ccc(OC(F)(F)F)cc3)n2)cc1 [Compound 156]
[1]
  mortality at 50 µg/cm2: 50 to 100%
[2]
  mortality at 50 µg/cm2: 50 to 100%

## Cc1ncccc1NC(=S)N/N=C/c1ccc(-c2ncn(-c3ccc(OC(F)(F)F)cc3)n2)cc1 [Compound 99]
[1]
  mortality at 50 µg/cm2: 50 to 100%
[2]
  mortality at 50 µg/cm2: 50 to 100%

## FC(F)(F)Oc1ccc(-n2cnc(-c3ccc(/C=N/NC(=S)NC4CCc5ccccc54)cc3)n2)cc1 (stereo not drawn) [Compound 145]
[1]
  mortality at 50 µg/cm2: 50 to 100%
[2]
  mortality at 50 µg/cm2: 50 to 100%

## FC(F)(F)Oc1ccc(-n2ccc(-c3ccc(/C=N/NC(=S)Nc4c(Cl)cccc4Cl)cc3)c2)cc1 [Compound 135]
[1]
  mortality at 50 µg/cm2: 50 to 100%
[2]
  mortality at 50 µg/cm2: 50 to 100%

## Cc1ccc(Cl)c(C)c1NC(=S)N/N=C/c1ccc(-c2ncn(-c3ccc(OC(F)(F)F)cc3)n2)cc1 [Compound 101]
[1]
  mortality at 50 µg/cm2: 50 to 100%
[2]
  mortality at 50 µg/cm2: 50 to 100%

## C/C(=N\NC(=S)Nc1c(C)cccc1C)c1ccc(-c2cnn(-c3ccc(OC(F)(F)F)cc3)c2)cc1 [Compound 139]
[1]
  mortality at 50 µg/cm2: 50 to 100%
[2]
  mortality at 50 µg/cm2: 50 to 100%

## COC(=O)c1ccccc1NC(=S)N/N=C/c1ccc(-c2ncn(-c3ccc(OC(F)(F)F)cc3)n2)cc1 [Compound 84]
[1]
  mortality at 50 µg/cm2: < 50%
[2]
  mortality at 50 µg/cm2: < 50%

## COc1cccc(NC(=S)N/N=C/c2ccc(-c3ncn(-c4ccc(OC(F)(F)F)cc4)n3)cc2)c1 [Compound 94]
[1]
  mortality at 50 µg/cm2: 50 to 100%
[2]
  mortality at 50 µg/cm2: 50 to 100%

## COC(=O)C1CC(c2ccc(/C=N/NC(=S)Nc3c(C)cccc3C)cc2)=NN1c1ccc(OC(F)(F)F)cc1 (stereo not drawn) [Compound 130]
[1]
  mortality at 50 µg/cm2: 50 to 100%
[2]
  mortality at 50 µg/cm2: 50 to 100%

## FC(F)(F)Oc1ccc(-n2cnc(-c3ccc(/C=N/NC(=S)Nc4ccccc4I)cc3)n2)cc1 [Compound 60]
[1]
  mortality at 50 µg/cm2: 50 to 100%
[2]
  mortality at 50 µg/cm2: 50 to 100%

## Cc1cccc(C)c1NC(=S)N/N=C/c1ccc(C2=NN(c3ccc(OC(F)(F)F)cc3)CC2)cc1 [Compound 140]
[1]
  mortality at 50 µg/cm2: 50 to 100%
[2]
  mortality at 50 µg/cm2: 50 to 100%

## CCc1cc(OC)ccc1NC(=S)N/N=C/c1ccc(-c2ncn(-c3ccc(OC(F)(F)F)cc3)n2)cc1 [Compound 111]
[1]
  mortality at 50 µg/cm2: 50 to 100%
[2]
  mortality at 50 µg/cm2: 50 to 100%

## Cc1cc(F)cc(C)c1NC(=S)N/N=C/c1ccc(-c2ncn(-c3ccc(OC(F)(F)F)cc3)n2)cc1 [Compound 112]
[1]
  mortality at 50 µg/cm2: 50 to 100%
[2]
  mortality at 50 µg/cm2: 50 to 100%

## COc1cc(OC)c(NC(=S)N/N=C/c2ccc(-c3ncn(-c4ccc(OC(F)(F)F)cc4)n3)cc2)c(OC)c1 [Compound 88]
[1]
  mortality at 50 µg/cm2: 50 to 100%
[2]
  mortality at 50 µg/cm2: 50 to 100%

## CCCN(/N=C/c1ccc(-c2ncn(-c3ccc(OC(F)(F)F)cc3)n2)cc1)C(=S)Nc1ccc(OC)cc1C [Compound 87]
[1]
  mortality at 50 µg/cm2: < 50%
[2]
  mortality at 50 µg/cm2: < 50%

## COc1cc(C)cc(C)c1NC(=S)N/N=C/c1ccc(-c2ncn(-c3ccc(OC(F)(F)F)cc3)n2)cc1 [Compound 103]
[1]
  mortality at 50 µg/cm2: 50 to 100%
[2]
  mortality at 50 µg/cm2: 50 to 100%

## FC(F)(F)Oc1ccc(-n2cnc(-c3ccc(/C=N/NC(=S)Nc4ncc(Cl)cc4Cl)cc3)n2)cc1 [Compound 113]
[1]
  mortality at 50 µg/cm2: < 50%
[2]
  mortality at 50 µg/cm2: < 50%

## Cc1ccc(C(C)NC(=S)N/N=C/c2ccc(-c3ncn(-c4ccc(OC(F)(F)F)cc4)n3)cc2)cc1 (stereo not drawn) [Compound 144]
[1]
  mortality at 50 µg/cm2: 50 to 100%
[2]
  mortality at 50 µg/cm2: 50 to 100%

## Cc1cc(C)c(NC(=S)N/N=C/c2ccc(-c3ncn(-c4ccc(OC(F)(F)F)cc4)n3)cc2)c(Cl)c1 [Compound 104]
[1]
  mortality at 50 µg/cm2: 50 to 100%
[2]
  mortality at 50 µg/cm2: 50 to 100%

## COc1ccc(NC(=S)N(C)/N=C/c2ccc(-c3ncn(-c4ccc(OC(F)(F)F)cc4)n3)cc2)c(C)c1 [Compound 85]
[1]
  mortality at 50 µg/cm2: 50 to 100%
[2]
  mortality at 50 µg/cm2: 50 to 100%

## CCc1cccc(CC)c1NC(=S)N/N=C(\C)c1ccc(-c2ncn(-c3ccc(OC(F)(F)F)cc3)n2)cc1 [Compound 110]
[1]
  mortality at 50 µg/cm2: 50 to 100%
[2]
  mortality at 50 µg/cm2: 50 to 100%

## Cc1cc(C)c(NC(=S)N/N=C/c2ccc(-c3ncn(-c4ccc(OC(F)(F)F)cc4)n3)cc2)c(C)n1 [Compound 106]
[1]
  mortality at 50 µg/cm2: 50 to 100%
[2]
  mortality at 50 µg/cm2: 50 to 100%

## COc1cccc(C(C)NC(=S)N/N=C/c2ccc(-c3ncn(-c4ccc(OC(F)(F)F)cc4)n3)cc2)c1 (stereo not drawn) [Compound 153]
[1]
  mortality at 50 µg/cm2: 50 to 100%
[2]
  mortality at 50 µg/cm2: 50 to 100%

## Cc1cccc(C)c1NC(=S)N/N=C/c1ccc(-c2cnn(-c3ccc(OC(F)(F)F)cc3)c2)cc1 [Compound 138]
[1]
  mortality at 50 µg/cm2: 50 to 100%
[2]
  mortality at 50 µg/cm2: 50 to 100%
